{"source": "patent EP2742940A1", "about": "“Salts of aza-bicyclo-di-aryl ethers for adminstration once daily, twice daily or thrice daily” (IP Gesellschaft für Management mbH, priority 2012, dated 2014)", "origin": "cited, not measured here", "key": {"α7-nAChR": {"target": "T1, α7-nAChR (Homo sapiens, UniProt P36544)", "T1 construct": "expressed in transfected cells; host or cells: GH3 cells", "T1 sequence (P36544 23-502)": "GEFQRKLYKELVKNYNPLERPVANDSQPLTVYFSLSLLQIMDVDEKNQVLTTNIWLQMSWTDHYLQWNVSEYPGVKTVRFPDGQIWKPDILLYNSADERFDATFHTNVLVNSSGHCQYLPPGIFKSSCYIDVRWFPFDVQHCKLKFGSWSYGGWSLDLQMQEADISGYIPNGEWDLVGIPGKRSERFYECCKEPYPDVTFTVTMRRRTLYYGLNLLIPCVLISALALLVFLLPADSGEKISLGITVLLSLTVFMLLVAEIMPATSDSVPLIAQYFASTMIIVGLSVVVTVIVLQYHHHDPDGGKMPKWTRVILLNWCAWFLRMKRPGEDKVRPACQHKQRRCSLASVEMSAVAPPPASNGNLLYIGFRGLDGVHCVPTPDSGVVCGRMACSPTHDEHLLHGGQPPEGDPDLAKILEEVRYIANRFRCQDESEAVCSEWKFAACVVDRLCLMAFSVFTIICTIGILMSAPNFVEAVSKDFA", "details": "Emax relative to epibatidine response"}, "[1]": {"details": "mice; for Brain (pmoles/g)±SD) / Plasma (pmoles/ml±SD): 30 µmol/kg p.o."}, "[2]": {"design": "Initial water content / Hygroscopy @ 85%RH: unit not given here"}, "α4β2-nAChR": {"target": "T2, α4β2-nAChR (Homo sapiens, UniProt P17787+P43681)", "T2 construct": "expressed in transfected cells", "T2 sequence (P43681 29-627 limits assumed)": "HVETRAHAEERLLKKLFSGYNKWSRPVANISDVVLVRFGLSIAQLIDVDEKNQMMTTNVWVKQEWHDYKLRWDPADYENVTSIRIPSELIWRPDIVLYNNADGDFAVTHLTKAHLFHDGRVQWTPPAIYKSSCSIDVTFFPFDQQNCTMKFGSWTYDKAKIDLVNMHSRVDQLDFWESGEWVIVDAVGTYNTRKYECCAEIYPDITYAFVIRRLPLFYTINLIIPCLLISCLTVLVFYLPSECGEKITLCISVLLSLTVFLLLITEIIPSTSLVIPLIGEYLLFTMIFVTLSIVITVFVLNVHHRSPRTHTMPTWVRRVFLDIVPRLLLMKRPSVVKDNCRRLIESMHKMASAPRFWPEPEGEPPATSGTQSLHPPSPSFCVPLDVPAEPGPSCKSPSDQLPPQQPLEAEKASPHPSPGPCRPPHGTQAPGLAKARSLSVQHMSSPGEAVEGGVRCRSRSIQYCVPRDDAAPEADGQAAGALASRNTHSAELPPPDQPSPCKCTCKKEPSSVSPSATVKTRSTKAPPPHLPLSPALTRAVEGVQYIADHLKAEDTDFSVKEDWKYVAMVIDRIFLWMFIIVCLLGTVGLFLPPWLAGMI", "T2 sequence (P17787 26-502)": "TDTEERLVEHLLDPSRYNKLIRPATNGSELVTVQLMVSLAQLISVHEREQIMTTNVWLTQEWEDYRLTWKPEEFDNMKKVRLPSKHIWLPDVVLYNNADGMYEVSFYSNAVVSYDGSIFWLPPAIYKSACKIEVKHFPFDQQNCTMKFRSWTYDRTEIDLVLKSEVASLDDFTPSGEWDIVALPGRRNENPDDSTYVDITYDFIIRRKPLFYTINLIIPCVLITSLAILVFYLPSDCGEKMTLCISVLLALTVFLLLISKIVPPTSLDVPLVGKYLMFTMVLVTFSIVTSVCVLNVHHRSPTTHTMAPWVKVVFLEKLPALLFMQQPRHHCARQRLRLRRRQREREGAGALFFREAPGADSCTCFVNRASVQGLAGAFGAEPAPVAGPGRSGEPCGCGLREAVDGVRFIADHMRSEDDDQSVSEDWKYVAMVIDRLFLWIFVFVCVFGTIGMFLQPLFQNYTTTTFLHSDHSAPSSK"}, "mice": {"test_system": "mice", "details": "mouse, oral, Dose 0.3 mg/kg, familiar partner at 24 h vs time 0"}, "[3]": {"details": "male Wistar rats, oral 10 mg/kg, Mean All (n=8)"}, "[4]": {"details": "male Wistar rats, oral 10 mg/kg, individual rats 01-08, listed as free base, 10 mg/kg"}}, "note": "Where “and” joins values, the source holds several entries; their conditions need not be identical. Equal entries are not always repeated. Where two headings read alike, the source gives them in different places.", "data": [{"smiles": "Cc1ccc(-c2ccc(O[C@H]3CN4CCC3CC4)cn2)cc1", "note": "[Compound A, (R)-3-(6-(4-methylphenyl)-pyridin-3-yloxy)-1-aza-bicyclo[2.2.2]octane]", "values": [{"measurement": "α7-nAChR activity Efficacy compared to epibatidine (100%)", "setting": "α7-nAChR", "result": 75, "unit": "%"}, {"measurement": "Brain (pmoles/g)±SD)", "setting": "[1]; 0.25 hour", "result": "4631 ± 1717", "unit": "pmol/g"}, {"measurement": "Plasma (pmoles/ml±SD)", "setting": "[1]; 0.25 hour", "result": "573 ± 234", "unit": "pmol/mL"}, {"measurement": "Brain (pmoles/g)±SD)", "setting": "[1]; 0.5 hour", "result": "11430 ± 3441", "unit": "pmol/g"}, {"measurement": "Plasma (pmoles/ml±SD)", "setting": "[1]; 0.5 hour", "result": "559 ± 143", "unit": "pmol/mL"}, {"measurement": "Brain (pmoles/g)±SD)", "setting": "[1]; 1 hour", "result": "14948 ± 4716", "unit": "pmol/g"}, {"measurement": "Plasma (pmoles/ml±SD)", "setting": "[1]; 1 hour", "result": "322 ± 135", "unit": "pmol/mL"}, {"measurement": "Brain (pmoles/g)±SD)", "setting": "[1]; 4 hour", "result": "1272 ± 715", "unit": "pmol/g"}, {"measurement": "Plasma (pmoles/ml±SD)", "setting": "[1]; 4 hour", "result": "20 ± 16", "unit": "pmol/mL"}, {"measurement": "Brain (pmoles/g)±SD)", "setting": "[1]; 8 hour", "result": "58 ± 27", "unit": "pmol/g"}, {"measurement": "time for which brain concentration is beyond (or at least equal) to the compound's EC50 at the a7-nAChR", "setting": "[1]; acute oral dose of 30 pmol/kg (so in the source), free base form", "result": "at least 4 hours"}, {"measurement": "Hygroscopy @ 85%RH", "setting": "[2]; 85%RH", "result": "∼2"}, {"measurement": "Initial water content", "setting": "[2]; Example 7 comparison of salt forms", "result": 0.1}, {"measurement": "moisture gain", "setting": "[2]; at 93% relative humidity (RH)", "result": 2, "unit": "%"}, {"measurement": "AUClast", "setting": "[3]", "result": 200, "unit": "ng·h/mL"}, {"measurement": "AUClast/Dose (h·ng/mL)/(mg/kg)", "setting": "[3]", "result": "20.4 (h·ng/mL)/(mg/kg)"}, {"measurement": "Cmax", "setting": "[3]", "result": 112, "unit": "ng/mL"}, {"measurement": "Cmax/Dose (ng/mL)/(mg/kg)", "setting": "[3]", "result": "11.3 (ng/mL)/(mg/kg)"}, {"measurement": "Concentration in plasma, Time (h) 0.25", "setting": "[3]", "result": 100, "unit": "ng/mL"}, {"measurement": "Concentration in plasma, Time (h) 0.5", "setting": "[3]", "result": 83.5, "unit": "ng/mL"}, {"measurement": "Concentration in plasma, Time (h) 1", "setting": "[3]", "result": 52.7, "unit": "ng/mL"}, {"measurement": "Concentration in plasma, Time (h) 2", "setting": "[3]", "result": 31.2, "unit": "ng/mL"}, {"measurement": "Concentration in plasma, Time (h) 3", "setting": "[3]", "result": 16.2, "unit": "ng/mL"}, {"measurement": "Concentration in plasma, Time (h) 4", "setting": "[3]", "result": 10.3, "unit": "ng/mL"}, {"measurement": "Concentration in plasma, Time (h) 6", "setting": "[3]", "result": 437, "unit": "ng/mL"}, {"measurement": "Concentration in plasma, Time (h) 8", "setting": "[3]", "result": 354, "unit": "ng/mL"}, {"measurement": "Concentration in plasma, Time (h) 24", "setting": "[3]", "result": 0.822, "unit": "ng/mL"}, {"measurement": "AUClast", "setting": "[4]", "result": "141 ng·h/mL and 123 ng·h/mL and 238 ng·h/mL and 136 ng·h/mL and 214 ng·h/mL and 296 ng·h/mL and 234 ng·h/mL and 236 ng·h/mL"}, {"measurement": "AUClast/Dose (h·ng/mL)/(mg/kg)", "setting": "[4]", "result": "14.0 (h·ng/mL)/(mg/kg) and 12.0 (h·ng/mL)/(mg/kg) and 24.4 (h·ng/mL)/(mg/kg) and 13.5 (h·ng/mL)/(mg/kg) and 21.6 (h·ng/mL)/(mg/kg) and 29.7 (h·ng/mL)/(mg/kg) and 23.4 (h·ng/mL)/(mg/kg) and 24.5 (h·ng/mL)/(mg/kg)"}, {"measurement": "Cmax", "setting": "[4]", "result": "58.8 ng/mL and 89.6 ng/mL and 83.0 ng/mL and 94.8 ng/mL and 119 ng/mL and 188 ng/mL and 117 ng/mL and 145 ng/mL"}, {"measurement": "Cmax/Dose (ng/mL)/(mg/kg)", "setting": "[4]", "result": "5.81 (ng/mL)/(mg/kg) and 8.79 (ng/mL)/(mg/kg) and 8.50 (ng/mL)/(mg/kg) and 9.40 (ng/mL)/(mg/kg) and 12.0 (ng/mL)/(mg/kg) and 18.9 (ng/mL)/(mg/kg) and 11.7 (ng/mL)/(mg/kg) and 15.0 (ng/mL)/(mg/kg)"}, {"measurement": "Concentration in plasma, Time (h) 0.25", "setting": "[4]", "result": "58.8 ng/mL and 89.68 ng/mL and 3.0 ng/mL and 79.4 ng/mL and 105 ng/mL and 188 ng/mL and 49.0 ng/mL and 145 ng/mL"}, {"measurement": "Concentration in plasma, Time (h) 0.5", "setting": "[4]", "result": "34.8 ng/mL and 51.2 ng/mL and 64.5 ng/mL and 94.8 ng/mL and 119 ng/mL and 122 ng/mL and 117 ng/mL and 65.0 ng/mL"}, {"measurement": "Concentration in plasma, Time (h) 1", "setting": "[4]", "result": "20.1 ng/mL and 63.9 ng/mL and 36.0 ng/mL and 65.8 ng/mL and 83.6 ng/mL and 87.0 ng/mL and 33.8 ng/mL"}, {"measurement": "Concentration in plasma, Time (h) 2", "setting": "[4]", "result": "679 ng/mL and 12.6 ng/mL and 51.7 ng/mL and 16.2 ng/mL and 43.2 ng/mL and 46.9 ng/mL and 42.2 ng/mL and 29.9 ng/mL"}, {"measurement": "Concentration in plasma, Time (h) 3", "setting": "[4]", "result": "531 ng/mL and 838 ng/mL and 26.3 ng/mL and 784 ng/mL and 23.0 ng/mL and 34.4 ng/mL and 18.4 ng/mL and 620 ng/mL"}, {"measurement": "Concentration in plasma, Time (h) 4", "setting": "[4]", "result": "394 ng/mL and 3.99 ng/mL and 18.2 ng/mL and 454 ng/mL and 8.63 ng/mL and 21.1 ng/mL and 13.8 ng/mL and 8.55 ng/mL"}, {"measurement": "Concentration in plasma, Time (h) 6", "setting": "[4]", "result": "487 ng/mL and 181 ng/mL and 662 ng/mL and 127 ng/mL and 5.32 ng/mL and 438 ng/mL and 4.59 ng/mL and 606 ng/mL"}, {"measurement": "Concentration in plasma, Time (h) 8", "setting": "[4]", "result": "662 ng/mL and 0.812 ng/mL and 246 ng/mL and 1.32 ng/mL and 367 ng/mL and 154 ng/mL and 225 ng/mL and 967 ng/mL"}, {"measurement": "T1/2", "setting": "[4]", "result": "8.67 h and 3.24 h and 367 h"}, {"measurement": "Tlast", "setting": "[4]", "result": "24.0 h (3×) and 8.0 h"}, {"measurement": "AUClast", "setting": "rats, acute oral dosing of 10 mg/kg", "result": "200+-62 h ng/ml"}, {"measurement": "EC50", "setting": "α4β2-nAChR", "result": "> 100", "unit": "µM"}, {"measurement": "Reduction in time scrutinizing in % ± SEM at 24 h", "setting": "mice", "result": "36 ± 6", "unit": "%"}]}]}
